Data on 2 compounds can be found in patent publication US9133180B2, “Aurora and FLT3 kinases modulators” (SAREUM LIMITED, priority 2012, dated 2015).

Molecules are shown by their SMILES.

For series [1], the system named is HCT-116. As to the kind of experiment: Anti-proliferative activity, Alamar Blue assay. It is filed as cell-based. Conditions: Homo sapiens, 96 h exposure, read-out: HCT116 96 Hrs IC50. Here is the method:
(§1) The anti-proliferative activities of compounds of the invention are determined by measuring the ability of the compounds to inhibit the growth of the colorectal cancer derived cell-line HCT-116. Inhibition of cell growth is measured using the Alamar Blue assay (Nociari et al., Journal of Immunological Methods (1998) 213, 157-167). The method is based on the ability of viable cells to reduce resazurin to its fluorescent product resorufin. For each proliferation assay cells are plated onto 96 well plates and allowed to recover for 16 hours prior to the addition of inhibitor compounds for a further 96 hours. At the end of the incubation period 10% (v/v) Alamar Blue is added and incubated for a further 6 hours prior to determination of fluorescent product at Excitation 535 nm and Emission 590 nm. All cell lines are obtained from ECACC (European Collection of cell Cultures).
(§2) The activities of the compounds of the invention against the human colorectal cancer cell line HCT-116 are shown the in the table below. The column headed HCT-116 96 Hrs refers to the concentration of compound required to reduce the proliferation of HCT-116 cells by 50% following a 96 h period of exposure. The column headed [Polyploidy] refers to the lowest concentration of compound required to produce a distinct polyploid phenotype, believed to be due to Aurora B inhibition.

For the next series, the system named is L-363. As to the kind of experiment: CellTiter-Blue assay, haematological cell line. The format is cell-based. To be noted: Homo sapiens, 96 h; L-363 (MM), four days treatment. The method, then:
(§3) The compounds of Examples 2 and 7 were tested against a range of human haematological cell lines using the CellTiter-Blue® assay (#G8081, Promega) according to the manufacturer's instructions. Cells were harvested from exponential phase cultures, counted and plated in 96 well flat-bottom microtiter plates at a cell density of 20,000-90,000 cells/well. After a 24 h recovery period to allow the cells to resume exponential growth, 10 μl of culture medium (four control wells/plate) or of culture medium with test compound were added. The compounds were applied in duplicates at ten concentrations and treatment continued for four days. After treatment of cells, 10 μl/well CellTiter-Blue® reagent was added. Following an incubation period of up to four hours, fluorescence (FU) was measured by using the EnVision Xcite multilabel reader (excitation λ=531 nm, emission λ=615 nm). The compounds were tested in two to four independent experiments for each cell line.

The subject of another series is OCI-AML2. As to the kind of experiment: CellTiter-Blue assay, haematological cell line. It is filed as cell-based. Conditions: Homo sapiens, 96 h; OCI-AML2 (AML), four days treatment. The method, then: as §3
Another series relates to PL-21. Put plainly: CellTiter-Blue assay, haematological cell line. Conditions: Homo sapiens, 96 h; PL-21 (AML), four days treatment. The format is cell-based. Here is the method:
as §3

The test system of series [2] is HCT-116. As to the kind of experiment: Polyploid phenotype in HCT-116 cells. The format is cell-based, human. Here is the method: as §1, §2
Series [3] is described as follows: Caco-2 permeability assay. To be noted: human; for Papp A→B: A2B, read-out: Caco2 A2B Papp; for Papp B→A: B2A, read-out: Caco2 B2A Papp. It is filed as in vitro ADME. Here is the method: The ability of a compound to be taken up and retained by a cell can be measured by carrying out permeability studies using Caco-2 cells.
Compounds of the present invention were therefore tested in a standard Caco-2 assay and the rate of flow of the compounds into and out of the cells was determined.
In the table, the column headed “Caco-2 A2B” indicates the rate at which compound flows into the cells and the column Caco-2 B2A indicates the rate at which compound flows out of the cells. The “Efflux Ratio” is the ratio of Caco-2 B2A:Caco-2 A2B.

A further series has as its target Aurora A kinase (Homo sapiens (Human), UniProt O14965). Put plainly: Aurora A kinase 33P-ATP filter assay (Reaction Biology Corp.). It is filed as biochemical. The method, then: (§4) The ability of the compounds of the invention to inhibit FLT3 kinase and Aurora A and Aurora B kinases was determined using the assays described below.
(§5) Kinase assays were performed at Reaction Biology Corp., Malvern, Pa., USA, using the following general procedure:
(§6) 1) Prepare indicated substrate in freshly prepared Base Reaction Buffer (20 mM Hepes pH 7.5, 10 mM MgCl2, 1 mM EGTA, 0.02% Brij35, 0.02 mg/ml BSA, 0.1 mM Na3VO4, 2 mM DTT, 1% DMSO).
(§7) 2) Deliver cofactors (1.5 mM CaCl2, 16 ug/mL Calmodulin, 2 mM MnCl2) to the substrate solution above.
(§8) 3) Deliver indicated kinase into the substrate solution and gently mix
(§9) 4) Deliver varying concentrations of test compound in DMSO into the kinase reaction mixture.
(§10) 5) Deliver ^33P-ATP (specific activity 0.01 µCi/µL final) into the reaction mixture to initiate the reaction.
(§11) 6) Incubate kinase reaction for 120 min at room temperature.
(§12) 7) Reactions are spotted onto P81 ion exchange filter paper (Whatman #3698-915)
(§13) 8) Unbound phosphate is removed by washing filters extensively in 0.75% phosphoric acid.
(§14) 9) ^33P signal was determined using Typhoon phosphorimagers (GE Healthcare).
(§15) Substrates: Kemptide=[H-LRRASLG] Abltide=[[…]]

The target in another series is FLT3 kinase (Homo sapiens (Human), UniProt P36888). As to the kind of experiment: FLT3 kinase 33P-ATP filter assay (Reaction Biology Corp.). The format is biochemical. The method, then: as §4, §5, §6, §7, §8, §9, §10, §11, §12, §13, §14, §15
Chain of FLT3 kinase (P36888 27-993): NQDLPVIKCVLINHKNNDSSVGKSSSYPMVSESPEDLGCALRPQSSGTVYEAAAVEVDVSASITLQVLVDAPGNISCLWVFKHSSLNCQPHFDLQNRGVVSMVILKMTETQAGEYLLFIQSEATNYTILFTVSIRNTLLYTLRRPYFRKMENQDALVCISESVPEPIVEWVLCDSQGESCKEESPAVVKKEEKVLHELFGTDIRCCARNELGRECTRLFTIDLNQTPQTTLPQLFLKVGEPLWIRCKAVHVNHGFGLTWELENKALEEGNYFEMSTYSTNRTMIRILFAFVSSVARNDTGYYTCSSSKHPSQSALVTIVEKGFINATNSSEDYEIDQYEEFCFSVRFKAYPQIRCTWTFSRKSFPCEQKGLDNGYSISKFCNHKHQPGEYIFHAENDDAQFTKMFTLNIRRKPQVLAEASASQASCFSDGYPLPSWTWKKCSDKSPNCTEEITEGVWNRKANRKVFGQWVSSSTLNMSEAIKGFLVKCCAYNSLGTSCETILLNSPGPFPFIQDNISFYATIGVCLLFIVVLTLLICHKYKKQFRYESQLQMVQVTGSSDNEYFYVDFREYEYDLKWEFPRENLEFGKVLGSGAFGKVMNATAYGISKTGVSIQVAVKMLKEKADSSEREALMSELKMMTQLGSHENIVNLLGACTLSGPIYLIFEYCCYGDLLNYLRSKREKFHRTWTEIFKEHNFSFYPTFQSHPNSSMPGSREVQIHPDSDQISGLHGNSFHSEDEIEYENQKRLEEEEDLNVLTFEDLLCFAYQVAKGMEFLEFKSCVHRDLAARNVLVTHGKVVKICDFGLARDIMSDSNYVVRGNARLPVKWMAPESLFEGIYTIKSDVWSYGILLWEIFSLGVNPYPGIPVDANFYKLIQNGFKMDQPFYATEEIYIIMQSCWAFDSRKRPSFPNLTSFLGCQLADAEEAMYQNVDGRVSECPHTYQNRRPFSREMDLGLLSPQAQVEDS
The next series relates to MV4-11 xenograft tumors. As to the kind of experiment: MV4-11 xenograft study in nude mice. The format is in vivo, Balb/c nude mouse. To be noted: 4 cycles; for tumour inhibitory rate (IR): 5 days on, 2 day off, tumour weight at end point. The text has this: The in vivo antitumour activity of compounds of the invention was investigated by examining the effect of the compounds of Examples 2 and 7 on tumour growth in a nude mouse xenograft model of the MV4-11 cancer cell line.
MV4-11 cell line (ATCC, USA); RPMI 1640 medium (Invitrogen, USA); FBS (Invitrogen, Australia); Balb/c nude mouse (Slac Laboratory Animal Co., Ltd., Shanghai, China): female, 18-22 g; HP-6-CD (Sigma, USA).
A total of 52 female nude mice were used. The mice were allowed 3 days of acclimatization period before starting the experiment. Mice were implanted subcutaneously (s.c.) with 200 μl of 1×10^7MV4-11 tumour cells in 50% Matrigel in the right flank at the beginning of the study. When tumours reached an average volume of 100-150 mm^3, 32 mice out of the 52 were selected based on tumour volume, and randomly assigned to 4 groups prior to dosing. Each treatment group consisted of 8 tumour-bearing animals (n=8/group).
A comparison group of mice were treated with cytarabine once daily for 5 days on, 2 days off, for 4 cycles.
Mice were weighed at each dosing and the tumour sizes recorded twice each week. Mice were observed closely for any overt signs of adverse, treatment-related side effects and these were recorded if and when they were observed.
The tumour size was measured twice weekly in two dimensions using calipers, and the volume was expressed in mm^3 using the formula: V=0.5 a×b^2 where a and b were the long and short diameters of the tumour, respectively.
Mice were euthanized by CO2 exposure after 4-cycle dose. The tumour volume, weight of dissected tumours, and the mouse body weight were measured and recorded. The tumour inhibitory rate (IR) was calculated by the formula IR=(WV−WT)/WV×100%.
The differences in tumour size between the groups were analyzed for significance using the unpaired two-tailed Student's t-test. P<0.05 was considered to be statistically significant.

Chain of Aurora A kinase (O14965 whole entry): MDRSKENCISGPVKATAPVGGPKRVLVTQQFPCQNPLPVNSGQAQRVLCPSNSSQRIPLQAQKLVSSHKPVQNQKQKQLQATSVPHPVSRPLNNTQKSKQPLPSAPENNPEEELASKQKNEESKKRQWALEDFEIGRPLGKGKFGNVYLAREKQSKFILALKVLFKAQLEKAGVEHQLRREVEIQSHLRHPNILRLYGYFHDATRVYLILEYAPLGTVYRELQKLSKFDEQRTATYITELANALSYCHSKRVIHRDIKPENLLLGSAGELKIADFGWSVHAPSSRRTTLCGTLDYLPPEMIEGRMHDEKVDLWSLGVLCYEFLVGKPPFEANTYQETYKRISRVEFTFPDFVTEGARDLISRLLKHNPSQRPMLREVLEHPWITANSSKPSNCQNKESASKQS

On to `Cc1ccc2[nH]ccc2c1-c1nc(C(N)=O)c(-c2ccc(N3CCNC(C)(C)C3)cc2)o1` [Example 2, 2-(5-Methyl-1H-Indol-4-yl)-5-[4-(3,3-dimethyl-piperazin-1-yl)-phenyl]-oxazole-4-carboxylic acid amide], for which the IC50 in the series on HCT-116 [1] came out at 74 nM; in the series on L-363 it was 121 nM; in the series with OCI-AML2 it was 103 nM; with PL-21 it was 99 nM; against Aurora A kinase it was 13.6 nM; at FLT3 kinase it was 0.77 nM. Also, the “[Polyploidy] lowest concentration producing a distinct polyploid phenotype” value with HCT-116 [2] stood at 0.03 µM. For the same compound, the Papp A→B in [3] was found to be 1.98 ×10⁻⁶ cm/s. The Papp B→A in [3] stood at 9.91 ×10⁻⁶ cm/s. The efflux ratio in series [3] (B2A:A2B, read-out: Caco2 Efflux ratio) is 4.99. In addition, the “effect on tumour growth (tumour volume)” value in the series on MV4-11 xenograft tumors (20 mg/kg IV BID) was “completely inhibited the tumor growth”. The “tumour inhibitory rate (IR)” value in the series on MV4-11 xenograft tumors (20 mg/kg IV BID) amounted to 98.13%.

As to `Cc1cc(F)c2[nH]ccc2c1-c1nc(C(N)=O)c(-c2ccc(N3CCNC(C)(C)C3)cc2)o1` [Example 7, 2-(5-Methyl-7-Fluoro-1H-Indol-4-yl)-5-[4-(3,3-dimethyl-piperazin-1-yl)-phenyl]-oxazole-4-carboxylic acid amide], the IC50 with HCT-116 [1] amounted to 120 nM; in the series on L-363 it was 104 nM; in the series with OCI-AML2, 91 nM; in the series on PL-21, 91 nM; against Aurora A kinase it was 42.5 nM; on FLT3 kinase it was 0.48 nM. Also, the “[Polyploidy] lowest concentration producing a distinct polyploid phenotype” value with HCT-116 [2] came to 0.1 µM. The Papp A→B in [3] was 0.683 ×10⁻⁶ cm/s. Moreover, the Papp B→A in [3] was 2.26 ×10⁻⁶ cm/s. For the same compound, the “effect on tumour growth (tumour volume)” value in the series with MV4-11 xenograft tumors (30 mg/kg IV BID) was “completely inhibited the tumor growth”. The “tumour inhibitory rate (IR)” value in the series with MV4-11 xenograft tumors (30 mg/kg IV BID) was 98.24%.
